Drawing on ChEMBL document CHEMBL3132769, “Fragment growing to retain or alter the selectivity of anchored kinase hinge-binding fragments” (Medchemcomm, 2014), this text covers inhibition for 10 molecules.

As a reminder, the inhibition is the relative decrease from the control value, in per cent.

The target in experiment [1] is Proto-oncogene tyrosine-protein kinase Src (Homo sapiens) (UniProt P12931). Description: Inhibition of human full length SRC expressed in baculovirus assessed as substrate phosphorylation using fluorescence-labelled peptides as substrate at 8 uM after 90 mins by microfluidic peptide phosphorylation assay.
Proto-oncogene tyrosine-protein kinase Src (Homo sapiens), sequence (P12931 2-536 limits assumed): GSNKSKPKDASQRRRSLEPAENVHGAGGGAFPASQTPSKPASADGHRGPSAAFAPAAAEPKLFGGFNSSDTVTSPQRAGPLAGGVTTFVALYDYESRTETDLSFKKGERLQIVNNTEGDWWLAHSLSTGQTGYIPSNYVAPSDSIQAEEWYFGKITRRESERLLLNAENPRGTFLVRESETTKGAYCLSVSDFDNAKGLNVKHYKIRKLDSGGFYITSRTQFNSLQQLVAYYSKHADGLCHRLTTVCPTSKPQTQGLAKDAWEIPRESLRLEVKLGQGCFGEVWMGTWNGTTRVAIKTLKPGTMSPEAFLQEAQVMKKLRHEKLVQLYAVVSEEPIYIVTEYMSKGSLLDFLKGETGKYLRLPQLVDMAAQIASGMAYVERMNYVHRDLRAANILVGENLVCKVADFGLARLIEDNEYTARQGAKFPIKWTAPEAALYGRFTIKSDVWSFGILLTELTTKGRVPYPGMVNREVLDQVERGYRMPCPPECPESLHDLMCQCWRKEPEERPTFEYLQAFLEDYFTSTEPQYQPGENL
Experiment [2] has as its target Dual specificity tyrosine-phosphorylation-regulated kinase 1A (Rattus norvegicus) (UniProt Q63470). As to the kind of experiment: Inhibition of rat full length DYRK1a expressed in Escherichia coli cell assessed as substrate phosphorylation using fluorescence-labelled peptides as substrate at 8 uM after 90 mins by microfluidic peptide phosphorylation assay.
The target of experiment [3] is T1, Protein kinase C zeta type (Homo sapiens) (UniProt Q05513).
T1 sequence (whole entry): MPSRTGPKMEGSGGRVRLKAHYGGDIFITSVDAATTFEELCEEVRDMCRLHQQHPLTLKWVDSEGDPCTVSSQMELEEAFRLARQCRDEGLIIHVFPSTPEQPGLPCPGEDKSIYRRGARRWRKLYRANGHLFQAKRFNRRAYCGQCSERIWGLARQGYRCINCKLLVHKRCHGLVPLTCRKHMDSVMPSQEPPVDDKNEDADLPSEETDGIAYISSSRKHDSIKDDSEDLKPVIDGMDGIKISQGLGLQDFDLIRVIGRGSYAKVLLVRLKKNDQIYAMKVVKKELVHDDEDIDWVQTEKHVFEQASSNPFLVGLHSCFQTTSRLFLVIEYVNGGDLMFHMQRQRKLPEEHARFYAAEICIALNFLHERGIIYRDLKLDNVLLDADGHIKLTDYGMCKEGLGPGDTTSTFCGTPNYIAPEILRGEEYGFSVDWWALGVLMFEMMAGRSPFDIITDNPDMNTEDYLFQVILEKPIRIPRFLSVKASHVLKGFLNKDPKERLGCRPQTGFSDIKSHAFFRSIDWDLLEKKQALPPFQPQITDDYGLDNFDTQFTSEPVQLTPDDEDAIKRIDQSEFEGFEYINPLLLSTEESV
Description: Inhibition of human full length PKC zeta expressed in baculovirus assessed as substrate phosphorylation using fluorescence-labelled peptides as substrate at 420 uM after 90 mins by microfluidic peptide phosphorylation assay.

Experiment [4] has as its target T2, Aurora kinase A (Homo sapiens) (UniProt O14965).
T2 sequence (whole entry): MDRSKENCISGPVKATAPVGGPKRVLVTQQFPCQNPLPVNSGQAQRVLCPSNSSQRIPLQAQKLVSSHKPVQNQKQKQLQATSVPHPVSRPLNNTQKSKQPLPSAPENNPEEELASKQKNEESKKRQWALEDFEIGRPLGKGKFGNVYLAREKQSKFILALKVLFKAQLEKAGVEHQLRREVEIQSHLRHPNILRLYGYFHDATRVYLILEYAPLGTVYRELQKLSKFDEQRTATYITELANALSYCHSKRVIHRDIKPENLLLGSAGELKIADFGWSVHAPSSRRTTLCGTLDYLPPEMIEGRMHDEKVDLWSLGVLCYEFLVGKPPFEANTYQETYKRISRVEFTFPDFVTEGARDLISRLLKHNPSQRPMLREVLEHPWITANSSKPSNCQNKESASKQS
Description: Inhibition of human full length AurA expressed in baculovirus assessed as substrate phosphorylation using fluorescence-labelled peptides as substrate at 420 uM after 90 mins by microfluidic peptide phosphorylation assay.

Experiment [5] deals with Serine/threonine-protein kinase MARK1 (Homo sapiens) (UniProt Q9P0L2). Description: Inhibition of human full length MARK1 expressed in baculovirus assessed as substrate phosphorylation using fluorescence-labelled peptides as substrate at 420 uM after 90 mins by microfluidic peptide phosphorylation assay.
Serine/threonine-protein kinase MARK1 (Homo sapiens), sequence (Q9P0L2 whole entry, looked up, the tested form may be a part): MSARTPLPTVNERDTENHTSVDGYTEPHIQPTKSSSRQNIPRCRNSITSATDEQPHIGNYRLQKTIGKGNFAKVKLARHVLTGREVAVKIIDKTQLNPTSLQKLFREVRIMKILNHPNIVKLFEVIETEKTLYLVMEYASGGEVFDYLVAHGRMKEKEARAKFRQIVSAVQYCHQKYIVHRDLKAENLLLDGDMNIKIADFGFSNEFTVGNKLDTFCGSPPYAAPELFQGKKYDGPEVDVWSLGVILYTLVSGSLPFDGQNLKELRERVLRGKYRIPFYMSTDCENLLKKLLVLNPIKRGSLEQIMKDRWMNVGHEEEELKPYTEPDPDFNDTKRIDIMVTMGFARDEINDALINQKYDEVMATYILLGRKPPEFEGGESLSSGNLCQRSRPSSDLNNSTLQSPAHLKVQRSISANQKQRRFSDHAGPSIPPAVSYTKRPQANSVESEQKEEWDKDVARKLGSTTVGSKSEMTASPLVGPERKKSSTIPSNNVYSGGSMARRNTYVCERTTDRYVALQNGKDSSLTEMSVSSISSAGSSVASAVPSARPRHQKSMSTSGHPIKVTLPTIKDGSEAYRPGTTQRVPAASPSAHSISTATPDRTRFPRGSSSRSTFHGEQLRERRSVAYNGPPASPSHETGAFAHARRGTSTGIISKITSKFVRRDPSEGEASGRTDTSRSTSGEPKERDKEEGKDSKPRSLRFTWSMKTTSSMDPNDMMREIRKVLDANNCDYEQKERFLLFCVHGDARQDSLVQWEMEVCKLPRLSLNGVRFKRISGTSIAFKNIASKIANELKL
The test system of experiment [6] is Fibroblast growth factor receptor 2 (Homo sapiens), P21802 [N549H]. Description: Inhibition of human FGFR2 N549H mutant catalytic domain expressed in baculovirus assessed as substrate phosphorylation using fluorescence-labelled peptides as substrate at 0.1 uM after 90 mins by microfluidic peptide phosphorylation assay.
Fibroblast growth factor receptor 2 (Homo sapiens), P21802 [N549H], sequence (P21802 whole entry N549H, the tested form may be a part): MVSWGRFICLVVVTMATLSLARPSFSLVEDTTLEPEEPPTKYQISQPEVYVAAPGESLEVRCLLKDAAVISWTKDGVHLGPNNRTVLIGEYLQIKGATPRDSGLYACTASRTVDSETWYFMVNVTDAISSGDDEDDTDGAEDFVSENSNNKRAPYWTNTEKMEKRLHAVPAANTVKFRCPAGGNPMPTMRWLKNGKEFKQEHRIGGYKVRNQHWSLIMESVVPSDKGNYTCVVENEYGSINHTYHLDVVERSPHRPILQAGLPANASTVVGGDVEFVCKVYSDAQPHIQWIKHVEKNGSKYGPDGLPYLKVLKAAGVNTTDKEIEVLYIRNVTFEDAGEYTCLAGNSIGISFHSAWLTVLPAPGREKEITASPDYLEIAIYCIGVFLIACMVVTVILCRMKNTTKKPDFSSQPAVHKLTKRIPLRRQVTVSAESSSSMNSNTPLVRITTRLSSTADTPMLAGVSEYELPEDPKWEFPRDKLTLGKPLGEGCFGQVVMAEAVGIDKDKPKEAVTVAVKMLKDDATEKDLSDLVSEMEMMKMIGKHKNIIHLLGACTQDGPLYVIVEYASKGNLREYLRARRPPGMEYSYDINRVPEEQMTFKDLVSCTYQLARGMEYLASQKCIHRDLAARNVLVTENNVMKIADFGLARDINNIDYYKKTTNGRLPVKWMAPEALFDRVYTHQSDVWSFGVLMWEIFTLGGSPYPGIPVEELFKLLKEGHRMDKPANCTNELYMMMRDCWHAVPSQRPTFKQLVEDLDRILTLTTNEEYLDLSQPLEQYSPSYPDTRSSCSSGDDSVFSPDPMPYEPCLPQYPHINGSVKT
For experiment [7], the target named is Fibroblast growth factor receptor 3 (Homo sapiens) (UniProt P22607). As to the kind of experiment: Inhibition of human FGFR3 catalytic domain expressed in baculovirus assessed as substrate phosphorylation using fluorescence-labelled peptides as substrate at 0.06 uM after 90 mins by microfluidic peptide phosphorylation assay.
For experiment [8], the target named is Protein kinase C beta type (Homo sapiens) (UniProt P05771). Description: Inhibition of human full length PKC beta2 expressed in baculovirus assessed as substrate phosphorylation using fluorescence-labelled peptides as substrate at 0.06 uM after 90 mins by microfluidic peptide phosphorylation assay.
Protein kinase C beta type (Homo sapiens), sequence (P05771 2-671 limits assumed): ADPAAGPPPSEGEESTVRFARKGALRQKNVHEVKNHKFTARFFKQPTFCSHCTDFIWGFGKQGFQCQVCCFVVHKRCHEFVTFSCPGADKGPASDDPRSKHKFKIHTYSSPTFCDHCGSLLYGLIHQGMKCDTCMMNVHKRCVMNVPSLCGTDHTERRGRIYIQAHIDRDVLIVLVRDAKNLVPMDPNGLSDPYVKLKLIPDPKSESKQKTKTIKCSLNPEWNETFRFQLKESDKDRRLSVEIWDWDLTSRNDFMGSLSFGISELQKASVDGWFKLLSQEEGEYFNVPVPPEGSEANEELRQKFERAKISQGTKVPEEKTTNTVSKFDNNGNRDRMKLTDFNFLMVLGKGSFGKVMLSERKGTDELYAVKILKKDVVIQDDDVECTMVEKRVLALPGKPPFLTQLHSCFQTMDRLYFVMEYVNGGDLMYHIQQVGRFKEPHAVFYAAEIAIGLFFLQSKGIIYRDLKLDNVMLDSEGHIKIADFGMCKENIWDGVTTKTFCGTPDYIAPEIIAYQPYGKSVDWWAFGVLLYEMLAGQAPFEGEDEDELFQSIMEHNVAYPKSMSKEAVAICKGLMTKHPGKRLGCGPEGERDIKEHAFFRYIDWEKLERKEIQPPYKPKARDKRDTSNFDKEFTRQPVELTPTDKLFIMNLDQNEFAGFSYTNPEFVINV
In experiment [9] the test system is Tyrosine-protein kinase ABL1 (Homo sapiens), P00519 [H396P]. Description: Inhibition of human truncated ABL H396P mutant expressed in baculovirus assessed as substrate phosphorylation using fluorescence-labelled peptides as substrate at 0.2 uM after 90 mins by microfluidic peptide phosphorylation assay.
The target in experiment [10] is Vascular endothelial growth factor receptor 2 (Homo sapiens) (UniProt P35968). Description: Inhibition of human KDR cytoplasmic domain expressed in baculovirus assessed as substrate phosphorylation using fluorescence-labelled peptides as substrate at 9 uM after 90 mins by microfluidic peptide phosphorylation assay.
For experiment [11], the target named is Protein kinase C beta type (Homo sapiens) (UniProt P05771). As to the kind of experiment: Inhibition of human truncated PKC beta1 expressed in baculovirus assessed as substrate phosphorylation using fluorescence-labelled peptides as substrate at 70 uM after 90 mins by microfluidic peptide phosphorylation assay.
For experiment [12], the target named is Insulin-like growth factor 1 receptor (Homo sapiens) (UniProt P08069). As to the kind of experiment: Inhibition of human IGF1R catalytic domain expressed in baculovirus assessed as substrate phosphorylation using fluorescence-labelled peptides as substrate at 70 uM after 90 mins by microfluidic peptide phosphorylation assay.
For experiment [13] the target is unchanged. Description: Inhibition of human IGF1R catalytic domain expressed in baculovirus assessed as substrate phosphorylation using fluorescence-labelled peptides as substrate at 2 uM after 90 mins by microfluidic peptide phosphorylation assay.
Experiment [14] concerns the target Tyrosine-protein kinase Lck (Homo sapiens) (UniProt P06239). Description: Inhibition of human full length LCK expressed in baculovirus assessed as substrate phosphorylation using fluorescence-labelled peptides as substrate at 2 uM after 90 mins by microfluidic peptide phosphorylation assay.
Experiment [15] deals with MAP kinase p38 (Homo sapiens) (UniProt O15264+Q15759+Q16539+P53778). As to the kind of experiment: Inhibition of human full length p38 beta2 expressed in Escherichia coli cell assessed as substrate phosphorylation using fluorescence-labelled peptides as substrate at 95 uM after 90 mins by microfluidic peptide phosphorylation assay.
Experiment [16] has as its target RAC-alpha serine/threonine-protein kinase (Homo sapiens) (UniProt P31749). As to the kind of experiment: Inhibition of human AKT1 catalytic domain expressed in baculovirus assessed as substrate phosphorylation using fluorescence-labelled peptides as substrate at 95 uM after 90 mins by microfluidic peptide phosphorylation assay.
For experiment [17], the target named is Protein kinase C gamma type (Homo sapiens) (UniProt P05129). Description: Inhibition of human truncated PKC gamma expressed in baculovirus assessed as substrate phosphorylation using fluorescence-labelled peptides as substrate at 95 uM after 90 mins by microfluidic peptide phosphorylation assay.
Experiment [18] concerns the target Rho-associated protein kinase 2 (Homo sapiens) (UniProt O75116). As to the kind of experiment: Inhibition of human ROCK2 catalytic domain expressed in baculovirus assessed as substrate phosphorylation using fluorescence-labelled peptides as substrate at 1000 uM after 90 mins by microfluidic peptide phosphorylation assay.

Rho-associated protein kinase 2 (Homo sapiens), sequence (O75116 whole entry, looked up, the tested form may be a part): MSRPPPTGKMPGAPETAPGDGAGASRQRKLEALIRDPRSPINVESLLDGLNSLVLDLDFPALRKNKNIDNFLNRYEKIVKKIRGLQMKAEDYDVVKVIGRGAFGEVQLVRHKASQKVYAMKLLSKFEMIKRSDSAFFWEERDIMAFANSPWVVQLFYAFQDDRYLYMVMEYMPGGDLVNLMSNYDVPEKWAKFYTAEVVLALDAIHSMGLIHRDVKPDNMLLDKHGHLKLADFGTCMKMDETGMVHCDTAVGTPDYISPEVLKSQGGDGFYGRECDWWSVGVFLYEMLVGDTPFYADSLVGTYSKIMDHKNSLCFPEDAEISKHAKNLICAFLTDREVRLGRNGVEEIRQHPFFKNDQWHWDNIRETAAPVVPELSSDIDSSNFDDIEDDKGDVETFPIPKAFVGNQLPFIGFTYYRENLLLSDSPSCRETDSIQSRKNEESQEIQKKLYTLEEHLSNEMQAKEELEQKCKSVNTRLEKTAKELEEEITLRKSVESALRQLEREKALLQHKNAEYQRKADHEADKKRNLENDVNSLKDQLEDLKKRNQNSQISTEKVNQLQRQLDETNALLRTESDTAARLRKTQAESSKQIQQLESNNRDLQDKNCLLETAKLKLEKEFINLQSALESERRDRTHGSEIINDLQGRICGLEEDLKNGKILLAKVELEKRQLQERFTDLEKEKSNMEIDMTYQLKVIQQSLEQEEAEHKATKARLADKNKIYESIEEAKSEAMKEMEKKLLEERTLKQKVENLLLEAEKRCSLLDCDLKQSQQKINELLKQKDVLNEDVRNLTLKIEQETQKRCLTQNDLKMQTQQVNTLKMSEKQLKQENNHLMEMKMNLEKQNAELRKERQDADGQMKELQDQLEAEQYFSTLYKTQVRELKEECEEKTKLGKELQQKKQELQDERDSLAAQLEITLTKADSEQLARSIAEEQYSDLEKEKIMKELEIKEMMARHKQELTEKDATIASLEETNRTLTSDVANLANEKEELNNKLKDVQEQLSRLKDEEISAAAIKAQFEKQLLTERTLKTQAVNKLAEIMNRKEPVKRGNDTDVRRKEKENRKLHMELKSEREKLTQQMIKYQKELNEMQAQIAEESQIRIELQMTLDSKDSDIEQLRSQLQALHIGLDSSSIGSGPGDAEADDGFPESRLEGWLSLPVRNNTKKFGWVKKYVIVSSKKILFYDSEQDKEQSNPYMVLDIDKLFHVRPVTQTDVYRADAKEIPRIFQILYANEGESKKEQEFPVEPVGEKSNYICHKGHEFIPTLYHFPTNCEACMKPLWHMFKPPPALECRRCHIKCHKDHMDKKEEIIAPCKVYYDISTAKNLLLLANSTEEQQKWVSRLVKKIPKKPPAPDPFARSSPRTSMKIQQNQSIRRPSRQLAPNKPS
Tyrosine-protein kinase Lck (Homo sapiens), sequence (P06239 2-509 limits assumed): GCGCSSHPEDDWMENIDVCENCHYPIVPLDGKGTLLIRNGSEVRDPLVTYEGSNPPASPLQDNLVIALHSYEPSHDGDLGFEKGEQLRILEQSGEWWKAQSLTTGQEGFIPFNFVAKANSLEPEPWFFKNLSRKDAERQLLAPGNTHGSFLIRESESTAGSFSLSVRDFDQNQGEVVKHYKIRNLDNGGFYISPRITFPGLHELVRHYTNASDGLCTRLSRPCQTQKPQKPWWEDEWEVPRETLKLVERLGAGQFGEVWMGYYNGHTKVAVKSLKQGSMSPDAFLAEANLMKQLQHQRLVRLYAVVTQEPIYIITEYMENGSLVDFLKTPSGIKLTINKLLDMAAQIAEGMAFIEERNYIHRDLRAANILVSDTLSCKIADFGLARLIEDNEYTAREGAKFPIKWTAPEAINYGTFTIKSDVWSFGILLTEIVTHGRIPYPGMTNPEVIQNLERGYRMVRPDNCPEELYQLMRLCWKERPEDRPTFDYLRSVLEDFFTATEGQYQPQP

Consider `NCC1CCN(c2ncnc3[nH]ccc23)CC1`, for which the inhibition in [1] turned out to be 1.5%; in experiment [2], 54%. On to `c1nc(N2CCOCC2)c2nc[nH]c2n1`, for which the figures for the inhibition in [3], in [4] and in experiment [5] were 46%, 96% and 4.5%, respectively.

Take `C[C@H](CN(C)C)Oc1nc(Nc2cc3cccc(Cl)c3cn2)cnc1C#N`: the inhibition in [6] came out at 7.5%.

As for `NC1(Cc2ccc(Cl)cc2)CCN(c2ncnc3[nH]ccc23)CC1`, the inhibition in experiment [7] and in experiment [8] was 0% each time. For `Clc1ccc(C2(c3ccc(-c4ncnc5[nH]cnc45)cc3)CCNCC2)cc1`, the inhibition in experiment [9] is 4.5%. As for `NCC1CN(c2ncnc3[nH]c4cnccc4c23)CCO1` (stereo not drawn), the inhibition in experiment [10] came to 63.5%. With `CNCc1ccc(-c2ncnc3[nH]cnc23)cc1`, the inhibition in experiment [11] amounted to 73.5%; in experiment [12], 0%.

Consider `NC1CCN(c2ncnc3[nH]ccc23)CC1`, for which the inhibition was found to be 0% in [13] and 4.5% in [14].

On to `NCCc1ccc(-c2ncnc3[nH]cnc23)cc1`, for which the inhibition was found to be 11% in [15], 81% in experiment [16] and 71% in experiment [17].

Turning to `c1cnc2[nH]ccc2c1`, the inhibition in [18] was determined as 99.5%.
